Reference: patent publication US10654848B1, “Neutrophil inflammation inhibitor and uses thereof” (Chang Gung University of Science and Technology, priority 2018, dated 2020)
Structures can show the parent of a compound that is named as a salt.

First: Nc1noc2c1c(Nc1ccccc1O)nc1ccccc12 (as salt: salt) [Compound 28, 4-(2-Hydroxyanilino)isoxazolo[4,5-c]quinolin-3-amine]
Second: COc1ccccc1Nc1nc2ccccc2c2onc(N)c12 (as salt: salt) [Compound 21, 4-(2-Methoxyanilino)isoxazolo[4,5-c]quinolin-3-amine]
The melting point of the first is lower: 240 to 241 °C for the first, 261 to 262 °C for the second.

Compared with `Cn1nc(N)c2c(Nc3ccccc3S)nc3ccccc3c21` (as salt: salt) [Compound 16, 2-[(3-amino-1-methyl-1H-pyrazolo[4,3-c]quinolin-4-yl)amino]benzenethiol], `Cn1nc(N)c2c(Nc3ccccc3O)nc3ccccc3c21` (as salt: salt) [Compound 11, 4-(2-Hydroxyanilino)-1-methyl-1H-pyrazolo[4,3-c]quinolin-3-amine] is lower in melting point: 235 to 236 °C for the first, 233 to 235 °C for the second.

First: Cn1nc(N)c2c(Nc3ccc(C(=O)O)cc3)nc3ccccc3c21 (as salt: salt) [Compound 15, 4-[(3-Amino-1-methyl-1H-pyrazolo[4,3-c]quinolin-4-yl)amino]benzoic acid]
Second: CC(=O)c1ccc(Nc2nc3ccccc3c3c2c(N)nn3C)cc1 [Compound 10, 4-(4-Acetoylanilino)-1-methyl-1H-pyrazolo[4,3-c]quinolin-3-amine]
The melting point of the first is higher: 325 to 326 °C for the first, 272 to 274 °C for the second.

Compared with `COc1ccc(Nc2nc3ccccc3c3c2c(N)nn3C)cc1` (as salt: salt) [Compound 7, 4-(4-Methoxyanilino)-1-methyl-1H-pyrazolo[4,3-c]quinolin-3-amine], `Cc1ccc(Nc2nc3ccccc3c3c2c(N)nn3C)cc1` (as salt: salt) [Compound 18, 4-(4-Methylanilino)-1-methyl-1H-pyrazolo[4,3-c]quinolin-3-amine] is higher in melting point: 193 to 194 °C for the first, 253 to 255 °C for the second.

First: Nc1noc2c1c(Nc1ccc(C(=O)O)cc1)nc1ccccc12 (as salt: salt) [Compound 31, 4-[(3-aminoisoxazolo[4,5-c]quinolin-4-yl)amino]benzoic acid]
Second: CC(=O)c1ccc(Nc2nc3ccccc3c3onc(N)c23)cc1 (as salt: salt) [Compound 27, 4-(4-Acetoylanilino)isoxazolo[4,5-c]quinolin-3-amine]
The melting point of the first is higher: 308 to 310 °C for the first, 255 to 257 °C for the second.

First: Nc1noc2c1c(Nc1ccc(Cl)cc1)nc1ccccc12 (as salt: salt) [Compound 32, 4-(4-Chloroanilino)isoxazolo[4,5-c]quinolin-3-amine]
Second: Cc1ccc(Nc2nc3ccccc3c3onc(N)c23)cc1 (as salt: salt) [Compound 33, 4-(4-Methylanilino)isoxazolo[4,5-c]quinolin-3-amine]
The melting point of the first is higher: 268 to 269 °C for the first, 173 to 175 °C for the second.

First: COc1ccccc1Nc1nc2ccccc2c2c1c(N)nn2C [Compound 5, 4-(2-Methoxyanilino)-1-methyl-1H-pyrazolo[4,3-c]quinolin-3-amine]
Second: COc1cccc(Nc2nc3ccccc3c3c2c(N)nn3C)c1 (as salt: salt) [Compound 6, 4-(3-Methoxyanilino)-1-methyl-1H-pyrazolo[4,3-c]quinolin-3-amine]
The melting point of the first is lower: 229 to 230 °C for the first, 284 to 286 °C for the second.

First: Cn1nc(N)c2c(Nc3ccc(O)cc3)nc3ccccc3c21 (as salt: salt) [Compound 13, 4-(4-Hydroxyanilino)-1-methyl-1H-pyrazolo[4,3-c]quinolin-3-amine]
Second: Cn1nc(N)c2c(Nc3ccc(F)cc3)nc3ccccc3c21 (as salt: salt) [Compound 4, 4-(4-Fluoroanilino)-1-methyl-1H-pyrazolo[4,3-c]quinolin-3-amine]
The melting point of the first is higher: 320 to 322 °C for the first, 218 to 219 °C for the second.

Compared with `CSc1ccc(Nc2nc3ccccc3c3c2c(N)nn3C)cc1` (as salt: salt) [Compound 9, 1-Methyl-4-(4-methylthioanilino)-1H-pyrazolo[4,3-c]quinolin-3-amine], `Cn1nc(N)c2c(Nc3ccc(Cl)cc3)nc3ccccc3c21` (as salt: salt) [Compound 17, 4-(4-Chloroanilino)-1-methyl-1H-pyrazolo[4,3-c]quinolin-3-amine] is higher in melting point: 233 to 235 °C for the first, 281 to 282 °C for the second.

Compared with `Nc1noc2c1c(Nc1ccccc1)nc1ccccc12` (as salt: salt) [Compound 19, 4-Anilinoisoxazolo[4,5-c]quinolin-3-amine], `Nc1noc2c1c(Nc1ccc(F)cc1)nc1ccccc12` (as salt: salt) [Compound 20, 4-(4-Fluoroanilino)isoxazolo[4,5-c]quinolin-3-amine] is higher in melting point: 266 to 267 °C for the first, 271 to 272 °C for the second.

First: Cn1nc(N)c2c(Nc3cccc(O)c3)nc3ccccc3c21 (as salt: salt) [Compound 12, 4-(3-Hydroxyanilino)-1-methyl-1H-pyrazolo[4,3-c]quinolin-3-amine]
Second: Cn1nc(N)c2c(Nc3ccc(C(F)(F)F)cc3)nc3ccccc3c21 (as salt: salt) [Compound 14, 4-(4-Trifluoromethylanilino)-1-methyl-1H-pyrazolo[4,3-c]quinolin-3-amine]
The melting point of the first is lower: 190 to 191 °C for the first, 219 to 220 °C for the second.

Compared with `COc1cccc(Nc2nc3ccccc3c3onc(N)c23)c1` (as salt: salt) [Compound 22, 4-(3-Methoxyanilino)isoxazolo[4,5-c]quinolin-3-amine], `COc1ccc(Nc2nc3ccccc3c3onc(N)c23)cc1` (as salt: salt) [Compound 23, 4-(4-Methoxyanilino)isoxazolo[4,5-c]quinolin-3-amine] is lower in melting point: 262 to 263 °C for the first, 257 to 259 °C for the second.

Compared with `COc1cc(Nc2nc3ccccc3c3c2c(N)nn3C)cc(OC)c1OC` (as salt: salt) [Compound 8, 4-(3,4,5-Trimethoxyanilino)-1-methyl-1H-pyrazolo[4,3-c]quinolin-3-amine], `COc1cc(Nc2nc3ccccc3c3onc(N)c23)cc(OC)c1OC` (as salt: salt) [Compound 24, 4-(3,4,5-Trimethoxyanilino)isoxazolo[4,5-c]quinolin-3-amine] is higher in melting point: 219 to 220 °C for the first, 264 to 266 °C for the second.

First: Nc1noc2c1c(Nc1ccc(O)cc1)nc1ccccc12 (as salt: salt) [Compound 29, 4-(4-Hydroxyanilino)isoxazolo[4,5-c]quinolin-3-amine]
Second: CSc1ccc(Nc2nc3ccccc3c3onc(N)c23)cc1 (as salt: salt) [Compound 25, 4-(4-Methylthioanilino)isoxazolo[4,5-c]quinolin-3-amine]
The melting point of the first is lower: 236 to 237 °C for the first, 246 to 247 °C for the second.

First: Nc1noc2c1c(Nc1ccc(C(F)(F)F)cc1)nc1ccccc12 (as salt: salt) [Compound 30, 4-(4-Trifluoromethylanilino)isoxazolo[4,5-c]quinolin-3-amine]
Second: CC(=O)c1cccc(Nc2nc3ccccc3c3onc(N)c23)c1 (as salt: salt) [Compound 26, 4-(3-Acetoylanilino)isoxazolo[4,5-c]quinolin-3-amine]
The melting point of the first is lower: 227 to 229 °C for the first, 249 to 250 °C for the second.
